We go through 4 compounds from ChEMBL document CHEMBL1201862, “PubChem BioAssay data set” (2004).

The source made the active and inactive calls. Some results are limits rather than exact numbers.

In assay [1] the target is G-protein coupled receptor 55 (Homo sapiens, UniProt Q9Y2T6). Nature of the assay: GPR55 agonists via beta-arrestin recruitment, primary screen, imaging, U2OS cells, beta-arrestin-GFP redistribution (AID 1961). The format is functional.
The subject of another assay is T-cell. Put plainly: inhibitors of CD8+ T cell–vesicle binding, dose response, mouse 2C CD8+ T cells, flow cytometry (AID 485284). The format is functional.
In the next assay the target is Integrin alpha-L (Mus musculus, UniProt P24063). Put plainly: modulators of CD8 T cell-vesicle binding, dose response, powder samples, mouse 2C CD8+ cells (AID 504565). The format is functional.
In assay [2] the target is T1, Nucleotide-binding oligomerization domain-containing protein 1 (Homo sapiens, UniProt Q9Y239).
T1 sequence (Q9Y239 whole entry): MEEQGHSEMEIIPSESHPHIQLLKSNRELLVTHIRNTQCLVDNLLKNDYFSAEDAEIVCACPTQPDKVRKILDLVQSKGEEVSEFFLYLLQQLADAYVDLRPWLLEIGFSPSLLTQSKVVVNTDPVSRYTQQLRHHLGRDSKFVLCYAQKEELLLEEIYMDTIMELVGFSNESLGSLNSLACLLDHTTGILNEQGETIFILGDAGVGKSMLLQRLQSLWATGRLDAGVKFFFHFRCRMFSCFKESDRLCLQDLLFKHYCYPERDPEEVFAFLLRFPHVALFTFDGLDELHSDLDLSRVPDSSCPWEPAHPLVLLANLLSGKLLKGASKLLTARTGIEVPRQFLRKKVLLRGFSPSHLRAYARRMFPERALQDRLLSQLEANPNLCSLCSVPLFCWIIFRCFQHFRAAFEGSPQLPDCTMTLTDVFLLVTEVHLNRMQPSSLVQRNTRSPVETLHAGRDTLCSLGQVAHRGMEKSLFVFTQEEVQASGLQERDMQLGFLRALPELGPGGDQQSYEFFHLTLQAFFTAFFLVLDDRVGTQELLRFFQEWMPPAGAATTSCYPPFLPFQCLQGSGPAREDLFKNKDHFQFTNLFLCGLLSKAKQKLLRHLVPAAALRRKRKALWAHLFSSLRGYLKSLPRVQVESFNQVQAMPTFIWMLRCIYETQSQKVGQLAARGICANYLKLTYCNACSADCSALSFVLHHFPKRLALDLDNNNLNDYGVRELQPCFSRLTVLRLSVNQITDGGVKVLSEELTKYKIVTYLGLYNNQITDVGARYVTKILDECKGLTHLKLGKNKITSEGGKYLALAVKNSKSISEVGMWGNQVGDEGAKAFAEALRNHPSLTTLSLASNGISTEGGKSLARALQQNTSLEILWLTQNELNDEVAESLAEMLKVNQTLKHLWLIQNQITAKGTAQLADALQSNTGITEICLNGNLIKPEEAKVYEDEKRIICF
Nature of the assay: NOD1 signaling inhibitors, SAR follow-up, revised (AID 2333). The format is functional.

The target in assay [3] is T2, Nucleotide-binding oligomerization domain-containing protein 2 (Homo sapiens, UniProt Q9HC29). Nature of the assay: PubChem AID 2334. The class given is functional.
For assay [4], the system named is HEK293. Nature of the assay: SAR analysis of compounds that are cytotoxic to HEK293 - Set 2. [Related pubchem assays (depositor defined):AID1575, AID1578, AID1849, AID2001, AID2333, AID2334, AID2335, AID2337, AID2800]. The class given is functional, cell-based. The settings on record: Homo sapiens.
The subject of assay [5] is HEK293. Nature of the assay: NOD2 signaling inhibitors in MDP-stimulated cells, cell-based, uHTS, luminescence (AID 2001). The class given is functional. The conditions noted are these: Homo sapiens.
Assay [6] concerns HEK293. Nature of the assay: cells. The conditions noted are these: Homo sapiens.
For assay [7], the system named is HEK293. Put plainly: NOD1 signaling inhibitors, primary screen, cell-based, luminescence, uHTS (AID 1578). The class given is functional. The conditions noted are these: Homo sapiens.
The target of assay [8] is T2, Nucleotide-binding oligomerization domain-containing protein 2. Put plainly: NOD2 inhibitors, SAR follow-up, set 2 (AID 2475). The class given is functional.
Assay [9] has the same target. Put plainly: NOD2 signaling inhibitors, cell-based, luminescence, uHTS, HEK293 (AID 1566). The format is functional.
For assay [10], the target named is T1, Nucleotide-binding oligomerization domain-containing protein 1. Nature of the assay: SAR analysis of compounds that inhibit NOD1 - Set 2. [Related pubchem assays (depositor defined):AID1566, AID1575, AID1578, AID1849, AID1852, AID2333, AID2335, AID2798]. The class given is functional.
Assay [11] deals with T3, Tumor necrosis factor (Homo sapiens, UniProt P01375). Put plainly: TNFa-triggered NF-kB activation inhibitors, SAR follow-up, cell-based, revised (AID 2337). The format is functional.
Assay [12] has as its system HEK293. Nature of the assay: cells. The class given is functional, cell-based. The settings on record: Homo sapiens.
Assay [13] has as its system HEK293. Put plainly: cells. The conditions noted are these: Homo sapiens. The format is functional, cell-based. The source holds these as a separate data set.
Assay [14] deals with T3, Tumor necrosis factor. Put plainly: TNFa-triggered NF-kB activation inhibitors, SAR follow-up, cell-based, set 2 (AID 2483). The format is functional.
In assay [15] the test system is HEK293. Put plainly: cells. The class given is functional, cell-based. The conditions noted are these: Homo sapiens. The source holds these as a separate data set.
The target of assay [16] is Envelope glycoprotein gp160 (Human immunodeficiency virus 1, UniProt Q6QLK5). Put plainly: inhibitors of HIV fusion peptide binding, primary screen, biochemical, uHTS, fluorescence dequenching (AID 1986).
Sequence of Envelope glycoprotein gp160 (Q6QLK5 whole entry, the tested form may be a part): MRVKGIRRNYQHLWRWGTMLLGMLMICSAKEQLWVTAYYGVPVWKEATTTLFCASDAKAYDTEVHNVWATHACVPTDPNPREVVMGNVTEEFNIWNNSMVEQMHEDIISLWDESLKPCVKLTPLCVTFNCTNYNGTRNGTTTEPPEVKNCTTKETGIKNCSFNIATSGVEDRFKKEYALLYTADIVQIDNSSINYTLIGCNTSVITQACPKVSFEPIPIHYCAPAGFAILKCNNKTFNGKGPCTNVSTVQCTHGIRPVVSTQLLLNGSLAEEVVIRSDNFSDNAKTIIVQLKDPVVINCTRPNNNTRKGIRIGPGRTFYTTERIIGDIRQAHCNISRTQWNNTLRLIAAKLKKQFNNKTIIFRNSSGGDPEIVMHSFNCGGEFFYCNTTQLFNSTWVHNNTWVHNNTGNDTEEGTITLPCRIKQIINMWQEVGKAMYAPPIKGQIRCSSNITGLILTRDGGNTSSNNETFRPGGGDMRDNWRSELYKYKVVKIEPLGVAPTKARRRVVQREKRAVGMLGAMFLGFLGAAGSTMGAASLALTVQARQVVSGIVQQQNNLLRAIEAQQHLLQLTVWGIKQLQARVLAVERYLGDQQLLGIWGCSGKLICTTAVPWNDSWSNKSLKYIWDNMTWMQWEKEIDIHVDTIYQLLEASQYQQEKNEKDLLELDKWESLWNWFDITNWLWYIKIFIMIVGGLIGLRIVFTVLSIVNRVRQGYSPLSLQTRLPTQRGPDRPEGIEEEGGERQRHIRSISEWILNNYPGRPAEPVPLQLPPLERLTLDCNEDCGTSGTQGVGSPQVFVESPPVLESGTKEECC

T2 sequence (Q9HC29 whole entry, the tested form may be a part): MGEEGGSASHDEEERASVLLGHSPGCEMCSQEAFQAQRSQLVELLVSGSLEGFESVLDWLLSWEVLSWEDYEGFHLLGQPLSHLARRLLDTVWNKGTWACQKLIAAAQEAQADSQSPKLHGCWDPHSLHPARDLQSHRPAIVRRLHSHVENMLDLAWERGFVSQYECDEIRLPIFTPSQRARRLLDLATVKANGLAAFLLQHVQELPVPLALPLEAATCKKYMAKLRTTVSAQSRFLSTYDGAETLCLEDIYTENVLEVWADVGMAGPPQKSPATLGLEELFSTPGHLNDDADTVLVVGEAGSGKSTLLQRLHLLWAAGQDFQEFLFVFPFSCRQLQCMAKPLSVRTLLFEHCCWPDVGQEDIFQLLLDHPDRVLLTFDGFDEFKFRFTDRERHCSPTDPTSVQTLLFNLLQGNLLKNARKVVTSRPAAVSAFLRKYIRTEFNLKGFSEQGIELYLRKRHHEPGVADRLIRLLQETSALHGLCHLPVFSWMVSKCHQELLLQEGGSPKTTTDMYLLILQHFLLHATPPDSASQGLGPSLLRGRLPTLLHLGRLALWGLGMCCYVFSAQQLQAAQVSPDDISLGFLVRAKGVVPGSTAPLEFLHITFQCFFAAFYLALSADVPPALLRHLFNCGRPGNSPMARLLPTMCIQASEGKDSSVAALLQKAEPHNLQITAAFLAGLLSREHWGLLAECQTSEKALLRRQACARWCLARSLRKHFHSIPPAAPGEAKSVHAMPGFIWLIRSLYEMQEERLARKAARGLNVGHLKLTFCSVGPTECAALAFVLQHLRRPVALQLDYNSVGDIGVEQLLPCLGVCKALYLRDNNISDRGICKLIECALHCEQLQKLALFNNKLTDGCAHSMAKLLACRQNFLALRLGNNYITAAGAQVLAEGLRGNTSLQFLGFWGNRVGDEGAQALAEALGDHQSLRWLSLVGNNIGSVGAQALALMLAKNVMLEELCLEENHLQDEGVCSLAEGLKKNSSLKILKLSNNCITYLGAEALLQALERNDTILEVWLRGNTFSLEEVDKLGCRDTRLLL
T3 sequence (P01375 whole entry): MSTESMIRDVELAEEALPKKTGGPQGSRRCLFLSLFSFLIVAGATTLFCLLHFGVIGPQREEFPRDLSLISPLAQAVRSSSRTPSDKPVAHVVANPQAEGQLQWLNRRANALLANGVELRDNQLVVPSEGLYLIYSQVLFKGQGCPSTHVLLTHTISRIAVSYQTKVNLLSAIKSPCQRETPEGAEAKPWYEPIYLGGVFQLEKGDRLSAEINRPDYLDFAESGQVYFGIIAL
Sequence of G-protein coupled receptor 55 (Q9Y2T6 whole entry): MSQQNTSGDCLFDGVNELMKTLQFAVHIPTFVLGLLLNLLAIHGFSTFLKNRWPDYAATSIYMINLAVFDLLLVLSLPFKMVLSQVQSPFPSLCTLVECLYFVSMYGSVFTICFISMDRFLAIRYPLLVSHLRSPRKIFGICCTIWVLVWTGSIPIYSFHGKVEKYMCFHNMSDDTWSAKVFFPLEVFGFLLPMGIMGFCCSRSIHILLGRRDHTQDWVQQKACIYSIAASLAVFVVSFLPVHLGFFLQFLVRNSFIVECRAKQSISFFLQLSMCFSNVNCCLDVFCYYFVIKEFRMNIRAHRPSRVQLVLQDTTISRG
Sequence of Integrin alpha-L (P24063 whole entry, the tested form may be a part): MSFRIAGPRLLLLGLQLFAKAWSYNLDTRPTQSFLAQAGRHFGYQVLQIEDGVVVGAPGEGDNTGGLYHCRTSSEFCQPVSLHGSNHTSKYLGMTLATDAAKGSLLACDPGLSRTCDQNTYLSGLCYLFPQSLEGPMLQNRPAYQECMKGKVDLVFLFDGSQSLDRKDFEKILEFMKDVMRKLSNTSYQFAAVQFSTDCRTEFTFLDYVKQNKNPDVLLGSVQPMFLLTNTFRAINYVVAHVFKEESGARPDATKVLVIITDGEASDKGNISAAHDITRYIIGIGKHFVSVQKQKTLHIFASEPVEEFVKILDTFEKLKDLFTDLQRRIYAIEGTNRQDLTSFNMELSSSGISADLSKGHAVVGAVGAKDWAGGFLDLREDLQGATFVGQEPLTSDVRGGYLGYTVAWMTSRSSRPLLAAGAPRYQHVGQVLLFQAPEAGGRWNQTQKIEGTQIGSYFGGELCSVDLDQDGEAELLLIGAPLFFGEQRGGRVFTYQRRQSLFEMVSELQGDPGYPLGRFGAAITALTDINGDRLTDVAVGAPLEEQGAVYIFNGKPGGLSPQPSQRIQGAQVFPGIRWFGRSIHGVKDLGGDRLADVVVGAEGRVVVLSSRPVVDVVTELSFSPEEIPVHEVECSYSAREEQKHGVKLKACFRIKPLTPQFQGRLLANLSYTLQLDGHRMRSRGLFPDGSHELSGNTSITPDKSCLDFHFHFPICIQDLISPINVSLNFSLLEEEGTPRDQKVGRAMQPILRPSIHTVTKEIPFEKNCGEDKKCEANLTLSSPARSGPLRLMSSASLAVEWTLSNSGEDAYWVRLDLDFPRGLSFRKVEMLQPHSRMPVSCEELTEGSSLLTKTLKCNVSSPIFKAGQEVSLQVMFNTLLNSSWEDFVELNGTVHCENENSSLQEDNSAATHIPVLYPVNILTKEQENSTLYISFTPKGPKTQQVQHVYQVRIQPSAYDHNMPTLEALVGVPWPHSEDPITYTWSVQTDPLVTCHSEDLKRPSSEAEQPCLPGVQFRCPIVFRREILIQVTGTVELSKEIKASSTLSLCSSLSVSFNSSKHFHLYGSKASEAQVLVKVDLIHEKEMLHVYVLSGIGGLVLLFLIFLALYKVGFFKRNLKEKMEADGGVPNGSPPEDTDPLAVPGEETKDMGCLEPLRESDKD

As to `Cc1ccc(C)n1-n1cnc2sc(-c3ccccc3)cc2c1=O`, the EC50 in [1] was 8.51 µM (active).
As for `CCOC(=O)C1CCCN(S(=O)(=O)c2ccc(F)c(C(=O)Nc3ccc(F)c(F)c3)c2)C1` (stereo not drawn), the EC50 was 0.202 µM (active) with T-cell and 19.3 µM (active) at Integrin alpha-L.
Regarding `Cc1cc(SCC(=O)OC/C(O)=C(\C#N)c2nc3ccccc3[nH]2)c(C)cc1Br`, the IC50 in assay [2] was > 20 µM (inactive); in assay [3] it was > 20 µM (inactive); with HEK293 [4] it was > 20 µM (inactive); with HEK293 [5] it was 5.41 µM (inactive); with HEK293 [6], > 20 µM (inactive); in assay [8], 5.19 µM (active). Moreover, the IC50 in assay [10] is 5.95 µM (active); at Tumor necrosis factor [11], > 20 µM (inactive); in the assay on HEK293 [12] it was 18.9 µM (active); in the assay on HEK293 [13], > 20 µM (inactive); at Tumor necrosis factor [14], > 20 µM (inactive); in the assay with HEK293 [15], > 20 µM (inactive). Also, the EC50 (in the assay with HEK293 [7]; in [9]) was > 20 µM (inactive) in each case.
For the compound `OCCOCCN1CCN(C(c2ccccc2)c2ccc(Cl)cc2)CC1` (stereo not drawn) [HYDROXYZINE PAMOATE], the IC50 in [16] was 6.31 µM (active).
